# Laboratory results reported in ChEMBL document CHEMBL1799914, “Design and synthesis of small molecule RhoA inhibitors: a new promising therapy for cardiovascular diseases?” (J Med Chem, 2011).
# pIC50: −log10 of the molar value.
# Columns and labels:
# Aorta [1] = test: Vasorelaxant activity in Sprague-Dawley rat endothelium thoracic aortic ring assessed as inhibition of phenylephrine-induced submaximal contraction measured after 5 mins
# Aorta [2] = test: Vasorelaxant activity in Sprague-Dawley rat endothelium thoracic aortic ring assessed as inhibition of phenylephrine-induced submaximal contraction at 180 uM measured after 5 mins; assay type: functional
pIC50 (Aorta [1]),Compound,inhibition at 180 µM (Aorta [2]) [%]
3.87,OC/C=C/c1cccc(Nc2cnc3ccccc3n2)c1,78.6
3.79,O=C(O)/C=C/c1cccc(Nc2ccc3ccccc3n2)c1,55.9
